# Results reported in patent US11859248B2, “Nucleic acid modification and identification method” (IMBA—INSTITUT FÜR MOLEKULARE BIOTECHNOLOGIE GMBH, priority 2017, dated 2024).
# Assays:
# Drosophila S2 cells [1] = test: HPLC analysis of s^4U-incorporation into total RNA of Drosophila S2 cells; assay type: cell-based, Drosophila melanogaster; details: 500 μM s^4U, 24 h
# Method: Analysis of s^4U- or s^6G-incorporation into total RNA following metabolic labeling was performed as previously described by Spitzer et al. (Meth Enzymol. 539, 113-161 (2014)).
# Upon generating libraries from size-selected total RNA of Drosophila S2 cells after s^4U metabolic labeling for 24 hours, we observed a strong accumulation of T>C conversions when compared to libraries prepared from unlabeled cells, as exemplified for the miR-184 locus, which gives rise to an abundantly expressed microRNA, miR-184-3p, and its less abundant miR*, miR-184-5p (FIG. 12A). In order to confirm this observation at the genomic scale, we aligned reads to annotated microRNA loci in the Drosophila genome and inspected the frequency of any given mutation normalized to overall T-content per miRNA (FIG. 12B). In the absence of s^4U metabolic labeling, we observed a median mutation rate of less than 0.1% for any given mutation, a rate that is consistent with Illumina-reported sequencing error rates. (Note, that iodoacetamide treatment of unlabeled total RNA had no detectable impact on small RNA abundance and mutation rate, as determined by high-throughput sequencing. See FIG. 19). […]
# Drosophila S2 cells [2] = test: Small RNA sequencing of Drosophila S2 cells after s^4U metabolic labeling; assay type: cell-based, Drosophila melanogaster
# Method: Upon generating libraries from size-selected total RNA of Drosophila S2 cells after s^4U metabolic labeling for 24 hours, we observed a strong accumulation of T>C conversions when compared to libraries prepared from unlabeled cells, as exemplified for the miR-184 locus, which gives rise to an abundantly expressed microRNA, miR-184-3p, and its less abundant miR*, miR-184-5p (FIG. 12A). In order to confirm this observation at the genomic scale, we aligned reads to annotated microRNA loci in the Drosophila genome and inspected the frequency of any given mutation normalized to overall T-content per miRNA (FIG. 12B). In the absence of s^4U metabolic labeling, we observed a median mutation rate of less than 0.1% for any given mutation, a rate that is consistent with Illumina-reported sequencing error rates. (Note, that iodoacetamide treatment of unlabeled total RNA had no detectable impact on small RNA abundance and mutation rate, as determined by high-throughput sequencing. See FIG. 19). After 24 h of s^4U metabolic labeling, we observed a statistically significant (p<10^−4, Mann-Whitney test), 74-fold increase in T>C mutation rates, while all other mutations remained below expected sequencing error rates (FIG. 12B).
# Drosophila S2 cells [3] = test: Viability of Drosophila S2 cells under s^4U labeling conditions; assay type: cell-based, Drosophila melanogaster; details: 500 μM, 24 h
# [4] = test system: reverse transcriptases (Superscript II, Superscript III, Quant-seq RT); test: Reverse transcription of synthetic thiol-nucleotide-containing RNA followed by high-throughput sequencing; assay type: biochemical; details: after iodoacetamide-treatment
# Method: Primer extension assays were essentially performed as described previously by Nilsen et al. (Cold Spring Harb Protoc. 2013, 1182-1185). Briefly, template RNA oligonucleotides (5L-let-7-3L or 5L-let-7-s^4Up9-3L; Dharmacon; see Table for sequences) were deprotected according to the instructions of the manufacturer and purified by denaturing polyacrylamide gel-elution. 100 μM purified RNA oligonucleotides were treated with 10 mM iodoacetamide (+IAA) or EtOH (−IAA) in standard reaction conditions (50% DMSO, 50 mM sodiumphosphate buffer, pH 8) for 15 min at 50° C. The reaction was stopped by addition of 20 mM DTT, followed by ethanol precipitation. RT primer (see Table for sequence) was 5′ radiolabeled using γ-^32P-ATP (Perkin-Elmer) and T4-polynucleotide kinase (NEB), followed by denaturing polyacrylamide gel-purification. 640 nM γ-^32P-RT primer was annealed to 400 nM 5L-let-7-3L or 5L-let-7-s^4Up9-3L in 2× annealing buffer (500 mM KCl, 50 mM Tris pH 8.3) in a PCR machine (3 min 95° C., 30 sec 85° C. Ramp 0.5° C./s, 5 min 25° C. Ramp 0.1° C./s). Reverse transcription was performed using Superscript II (Invitrogen), Superscript III (Invitrogen), or Quant-seq RT (Lexogen) as recommended by the manufacturer. For dideoxynucleotide reactions, a final concentration of 500 μM ddNTP (as indicated) was added to RT reactions. Upon completion, RT reactions were resuspended in formamide loading buffer (Gel loading buffer II, Thermo Fisher Scientific) and subjected to 12.5% denaturing polyacrylamide gel electrophoresis. Gels were dried, exposed to storage phosphor screen (PerkinElmer), imaged on a Typhoon TRIO variable mode imager (Amersham Biosciences), and quantified using ImageQuant TL v7.0 (GE Healthcare). […]
# For sequencing analysis of synthetic RNA samples (FIG. 5) barcoded libraries were demultiplexed using Picard Tools BamIndexDecoder v1.13 allowing 0 mismatches in the barcode. […] Remaining aligned reads were converted to pileup format. […] Output table was analyzed and plotted in Excel v15.22 (Microsoft) and Prism v7.0a (GraphPad). […]
structure (smiles),measurement,setting,value
"O=c1[nH]c(=S)ccn1[C@@H]1O[C@H](CO)[C@@H](O)[C@H]1O [s^4U, 4-thiouridine]",labeling efficiency in total RNA,Drosophila S2 cells [1],2.3%
same,median s^4U-incorporation in miRNAs,"Drosophila S2 cells [2]; 500 μM s^4U, 24 h labeling",2.22%
same,increase in T>C mutation rates,Drosophila S2 cells [2]; 24 h labeling vs unlabeled,74 fold
same,effect on cell viability,Drosophila S2 cells [3],do not interfere with cell viability
same,increase in T to C conversion,[4],8.5 fold
same,mutation rate (T to C),[4]; all tested RTs,more than 0.94
